# Literature values, collected in patent US6579851B2, “Effects of glucagon-like peptide-1 (7-36) on antro-pyloro-duodenal motility” (Amylin Pharmaceuticals, Inc., priority 2000, dated 2003).
# Assays:
# [1] = system: gastroduodenal motility; details: cited from earlier work
# [2] = in vivo; cited from earlier work
substance,measurement,setting,value
Glucagon,Effect on contractions in the antrum,[1]; doses as high as 2 mg,does not reduce contractions in the antrum
same,Minimally effective dose for reduction in gastroduodenal motility,[1]; in vivo,0.5 mg
same,Dose at which side effects (nausea and vomiting) can appear,[2],1 mg
